According to US9808469B2, “Antitumor activity of multi-kinase inhibitors in triple negative breast cancer” (ENTRECHEM, S.L, priority 2014, dated 2017):
Read-outs that look alike come from different tables or passages of the source.

Assays:
[1] = system: HS578T, BT549 and MDA-MB-231 cells; test: Three-dimensional growth in matrigel (spherical structures); type: cell-based
Procedure: For three-dimensional cell culture, the bottom of 24 multi-dish plates was covered with a thin ice-cold 4% Matrigel (BD Biosciences) layer and incubated at 37° C. for 20 minutes to allow the Matrigel to solidify. Matrigel was added to conventional DMEM. The desired cells were tripsinized (0.25% trypsin-EDTA solution (2.5 g/L of trypsin, 0.38 g/L of EDTA) collected and resuspended to a final concentration of 12.500 cls/mL in 2% Matrigel. The cell suspension was added over the solidified Matrigel layer and incubated at 37° C. The medium was changed after 4 days and the cell culture was daily visualized under a microscope for phenotype monitoring. The cells were cultured for 10 days.

[2] = system: PI3K/mTOR/AKT and JAK/STAT pathway; test: Western Blot of PI3K/mTOR/AKT and JAK/STAT pathway components; type: cell-based; conditions: 500 nM, up to 24 h
Procedure: Western-blot and phospho-array kits were used for evaluation of signaling intermediates.
HS578T and BT549 cell lines were grown in DMEM 10% of FBS and at 70% confluence were treated with Formula (III) at 500 nM for 6, 12 and 24 hours. Cells were washed with phosphate-buffered saline (PBS) (137 mM NaCl, 2.7 mM KCl, 8 mM Na2HPO4, 1.5 mM KH2PO4) and lysed in ice-cold lysis buffer (20 mM Tris-HCl [pH 7.0], 140 mM NaCl, 50 mM EDTA, 10% glycerol, 1% Nonidet P-40, 1 μM pepstatin, 1 μg/mL aprotinin, 1 μg/mL leupeptin, 1 mM phenylmethyl sulfonyl fluoride, 1 mM sodium orthovanadate). Lysates were centrifuged at 10000 g at 4° C. for 10 minutes. The protein level in the supernatants was quantified using BCA protein assay (Sigma Aldrich). A total of 50 μg of protein of each sample was used for analysis. Samples were then boiled in electrophoresis sample buffer and placed on 6%-15% sodium dodecyl sulfate-polyacrylamide gel electrophoresis (SDS-PAGE) gels, depending on the molecular weight of the proteins to be analyzed. Briefly, after electrophoresis, proteins in gels were transferred to polyvinylidene difluoride membranes (Millipore Corporation). Membranes were blocked in Tris-buffered saline with Tween (TBST) (100 mM Tris [pH 7.5], 150 mM NaCl, 0.05% Tween 20) containing 1% of bovine serum albumin for 1 h and then incubated overnight with the corresponding antibody. […]

[3] = system: HS578T, BT549, MDA-MB-231 and HCC3153 cells; test: MTT metabolization in a panel of TNBC cell lines; type: cell-based
Procedure: Hs578T, BT549 and MDA-MB-231 were grown in DMEM and HCC3153 in RPMI; both mediums were purchased from Sigma Aldrich, supplemented with 10% FBS, 100 mU/mL penicillin, 100 μg/mL streptomycin and 2 mM L-glutamine, in a 5% CO2 atmosphere at 37° C. These triple negative breast cancer cell lines were obtained from the American Type Culture Collection Cell Biology Collection (ATCC) (Manassas, Va.). The medium was changed every 2 days.
(§1) Cell proliferation and growth experiments were carried out using 3-(4,5-dimethylthiazol-2-yl)-2,5-diphenyltetrazolium bromide (MTT) uptake assays, where MTT is reduced to purple formazan by the mitochondria of living cells. Increase in cell number is detected by augmented MTT metabolization, and decrease in cell number is reflected by a decrease. HS578T, BT549, MDA-MB-231 and HCC3153 cells were plated at a density of 1×10^4 cells per well in 24-well plates and cultured overnight in DMEM supplemented with 10% FBS. The cells were treated with the drug at different concentrations to plot the dose-response curves in all cancer cell lines using in the study. […] After treatment, each well was replaced with 250 μL of fresh medium containing MTT ([…]) and incubated for 1 hour. The medium was then removed and 500 μL of dimethyl sulfoxide was added to each well. The plate was agitated in the dark for 5 minutes to dissolve the MTT-formazan crystals. The absorbance of the samples was recorded at 562 nm in a multi-well plate reader (BMG labtech). Results were plotted as the mean values of quadruplicates from a representative experiment that was repeated at least two independent times.

MDA-MB-231 cells = test: MTT metabolization, inhibition of MDA-MB-231 cell proliferation; type: cell-based; conditions: Homo sapiens, read-out: Percentage inhibition Formula (III) mean
Procedure: These triple negative breast cancer cell lines were obtained from the American Type Culture Collection Cell Biology Collection (ATCC) (Manassas, Va.). The medium was changed every 2 days.
as §1, with “HS578T, BT549, MDA-MB-231 and HCC3153 cells were plated at a density of 1×10^4 cells per well in 24-well plates and cultured overnight in DMEM supplemented with 10% FBS.” left out
Combination index values less than 1 indicate synergism, values equal to 1 indicate an additive effect, whereas values greater than 1 indicate antagonism. Combination index values from three independent experiments were generated.

[4] = system: tyrosine and serine/threonine kinases; test: Biochemical kinase assays

With `C[C@]12O[C@H](C[C@@H](O)[C@H]1O)n1c3ccccc3c3c4c(c5c6ccccc6n2c5c31)C(=O)NC4=O` [Formula (III)] the “diameter of spherical structures in matrigel” value [1] was “strongly decreased the diameter of these spheres”, the “phosphorylation of AKT, p70 S6 and STAT3” value [2] was “inhibits components of the PI3K/mTOR/AKT and JAK/STAT pathway” and the MTT metabolization ([3]; 0 to 2 μM after 72 h, 500 nM over 6 days) was “inhibited the MTT metabolization in a dose and time dependent manner”. For the same compound, the growth inhibition ([3]; doses in the submicromolar (nanomolar) range, all cell lines studied) was “more than 80%”, the IC50 ([3]; read-out: IC50 dose (MTT metabolization)) was 500 nM and the viability at 0.1 µM (MDA-MB-231 cells; MDA-MB-231, Formula (III) 100 nM alone (Table 4)) was 56.4%. It also gave a viability at 0.1 µM (MDA-MB-231 cells; MDA-MB-231, Formula (III) 100 nM alone (Table 5)) of 62.5%, a viability at 0.12 µM (MDA-MB-231 cells; MDA-MB-231, Formula (III) 120 nM alone (Table 2)) of 63.8% and a viability at 0.12 µM (MDA-MB-231 cells; MDA-MB-231, Formula (III) 120 nM alone) of 63.8%. For the same compound, the viability at 0.18 µM (MDA-MB-231 cells; MDA-MB-231, Formula (III) 180 nM alone (Table 2)) was 49.8%, the viability at 0.18 µM (MDA-MB-231 cells; MDA-MB-231, Formula (III) 180 nM alone) was 49.8% and the viability at 0.2 µM (MDA-MB-231 cells; MDA-MB-231, Formula (III) 200 nM alone (Table 3)) was 60.3%. For the same compound, the viability at 0.2 µM (MDA-MB-231 cells; MDA-MB-231, Formula (III) 200 nM alone (Table 4)) was 56.4%, the viability at 0.2 µM (MDA-MB-231 cells; MDA-MB-231, Formula (III) 200 nM alone (Table 5)) was 46.9% and the viability at 0.24 µM (MDA-MB-231 cells; MDA-MB-231, Formula (III) 240 nM alone (Table 2)) was 38.2%. It also gave a viability at 0.24 µM (MDA-MB-231 cells; MDA-MB-231, Formula (III) 240 nM alone) of 38.2%, a viability at 0.26 µM (MDA-MB-231 cells; MDA-MB-231, Formula (III) 260 nM alone (Table 3)) of 54.5% and a viability at 0.3 µM (MDA-MB-231 cells; MDA-MB-231, Formula (III) 300 nM alone (Table 2)) of 28.1%. It also gave a viability at 0.3 µM (MDA-MB-231 cells; MDA-MB-231, Formula (III) 300 nM alone (Table 3)) of 49.4%, a viability at 0.3 µM (MDA-MB-231 cells; MDA-MB-231, Formula (III) 300 nM alone (Table 4)) of 40.2% and a viability at 0.3 µM (MDA-MB-231 cells; MDA-MB-231, Formula (III) 300 nM alone (Table 5)) of 40.5%. It also gave a viability at 0.3 µM (MDA-MB-231 cells; MDA-MB-231, Formula (III) 300 nM alone) of 28.1%, a viability at 0.38 µM (MDA-MB-231 cells; MDA-MB-231, Formula (III) 380 nM alone (Table 3)) of 36.9% and a viability at 0.4 µM (MDA-MB-231 cells; MDA-MB-231, Formula (III) 400 nM alone (Table 4)) of 35.3%. The viability at 0.4 µM (MDA-MB-231 cells; MDA-MB-231, Formula (III) 400 nM alone (Table 5)) was 33.7% and the “concentration range of kinase affinity and inhibition” value [4] was “nanomolar and subnanomolar range”.
